Test results: patent US7563793B2, “Pyrrolo[1,2-a]quinoxalin-5-(4H)-yl)sulfonyls and carbonyls and their use as estrogenic agents” (Wyeth, priority 2004, dated 2009)

How the values were obtained:
creatine kinase = assay: Creatine kinase assay in Ad5-wt-ER infected HAECT-1 cells; assay type: cell-based, human; conditions: Homo sapiens; for EC50: HAECT1, CK stimulation, N/O = activity not observed at concentrations tested, read-out: CK IC50; for Emax: HAECT1, relative to maximal stimulation observed with E2, read-out: CK Efficacy
Description: (§1) After four hours, cells were washed with EBM-BSA and incubated overnight in the same medium. […] After two hours, cells were washed and incubated at 34° C. for 1 hour. […] Control (no ER infection) cells were processed as above without Ad5-wt-hERα virus infection. […] Cells were subsequently washed with 300 μl of Dulbecco's phosphate buffered saline and lysed in 50 μl of Cell Culture Lysis Reagent (Promega). Luciferase was determined on a Wallac Victor^2 Luminometer (Gaithersburg, Md.) using 10 μl of lysate and mixing with 100 lμof Promega Luciferase Assay reagent. […] For IC50 and EC50 calculations, mean IL-6, luciferase or CK values versus log10 of the compound concentration were fitted to a four parameter logistic equation. The IC50/EC50 value, ‘Hill slope’, upper and lower limits of the curve were iteratively estimated.

IL-6 = IL-6 assay (ELISA) in Ad5-wt-ER infected HAECT-1 cells (IL-1β induced); assay type: cell-based, human; conditions: Homo sapiens; for IC50: HAECT1; for Emax: HAECT1, relative to maximal inhibition observed with E2, read-out: IL-6 Efficacy
Description: as §1

Compound	EC50 (creatine kinase) [nM]	IC50 (IL-6) [nM]	melting point [°C]	Emax (creatine kinase) [%]	Emax (IL-6) [%]
CC[C@H]1c2cccn2-c2c(cc(F)c(F)c2F)N1S(=O)(=O)c1ccc(O)cc1 [97 (S), 4-{[(4S)-4-ethyl-7,8,9-trifluoropyrrolo[1,2-a]quinoxalin-5(4H)-yl]sulfonyl}phenol]	31	9	155 to 156	37	134
CC[C@H]1c2ccc(C#N)n2-c2cc(F)c(F)cc2N1S(=O)(=O)c1ccc(O)cc1 [101 (S), (4S)-4-ethyl-7,8-difluoro-5-[(4-hydroxyphenyl)sulfonyl]-4,5-dihydropyrrolo[1,2-a]quinoxaline-1-carbonitrile]	91	424	191 to 192	30	131
CC[C@@H]1c2cccn2-c2cc(F)c(F)cc2N1S(=O)(=O)c1ccc(O)c(C)c1 [102 (R), 4-{[(4R)-4-ethyl-7,8-difluoropyrrolo[1,2-a]quinoxalin-5(4H)-yl]sulfonyl}-2-methylphenol]	1770	448	160 to 162	31	117
CCC1c2ccc(C#N)n2-c2ccc(Br)cc2N1S(=O)(=O)c1ccc(O)cc1 (stereo not drawn) [Example 80, 7-bromo-4-ethyl-5-[(4-hydroxyphenyl)sulfonyl]-4,5-dihydropyrrolo[1,2-a]quinoxaline-1-carbonitrile]	–	444	190 to 192	–	103
CCC1c2ccc(C#N)n2-c2cc(F)c(F)cc2N1S(=O)(=O)c1cccc(O)c1 (stereo not drawn) [Example 85, 4-ethyl-7,8-difluoro-5-[(3-hydroxyphenyl)sulfonyl]-4,5-dihydropyrrolo[1,2-a]quinoxaline-1-carbonitrile]	–	696	179 to 182	–	112
CC[C@H]1c2ccc(C#N)n2-c2ccc(Br)cc2N1S(=O)(=O)c1ccc(O)cc1 [Example 89, (4S)-7-bromo-4-ethyl-5-[(4-hydroxyphenyl)sulfonyl]-4,5-dihydropyrrolo[1,2-a]quinoxaline-1-carbonitrile]	9.9	150	189 to 191	7	188
CC[C@@H]1c2ccc(C#N)n2-c2ccc(Br)cc2N1S(=O)(=O)c1ccc(O)cc1 [Example 91, (4R)-7-bromo-4-ethyl-5-[(4-hydroxyphenyl)sulfonyl]-4,5-dihydropyrrolo[1,2-a]quinoxaline-1-carbonitrile]	–	1460	182 to 185	-4	86
CCC1c2ccc(C#N)n2-c2cc(F)c(F)cc2N1S(=O)(=O)c1ccc(O)cc1 (stereo not drawn) [Example 93, 4-ethyl-7,8-difluoro-5-[(4-hydroxyphenyl)sulfonyl]-4,5-dihydropyrrolo[1,2-a]quinoxaline-1-carbonitrile]	–	299	205	–	105
CCC1c2cccn2-c2c(cc(F)c(F)c2F)N1S(=O)(=O)c1cccc(O)c1 (stereo not drawn) [Example 100, 3-[(4-ethyl-7,8,9-trifluoropyrrolo[1,2-a]quinoxalin-5(4H)-yl)sulfonyl]phenol]	99	14	143 to 145	42	193
CC[C@@H]1c2ccc(C#N)n2-c2cc(F)c(F)cc2N1S(=O)(=O)c1ccc(O)cc1 [Example 101 (R), (4R)-4-ethyl-7,8-difluoro-5-[(4-hydroxyphenyl)sulfonyl]-4,5-dihydropyrrolo[1,2-a]quinoxaline-1-carbonitrile]	–	–	194 to 195	–	–
CC[C@H]1c2ccc(C#N)n2-c2cc(F)c(F)cc2N1S(=O)(=O)c1ccc(OS(N)(=O)=O)cc1 [Example 104, 4-{[(4S)-1-cyano-4-ethyl-7,8-difluoropyrrolo[1,2-a]quinoxalin-5(4H)-yl]sulfonyl}phenyl sulfamate]	–	178	196 to 201	–	110

The next lines start with results.

EC50 (creatine kinase) [nM]	IC50 (IL-6) [nM]	melting point [°C]	Compound	Emax (creatine kinase) [%]	Emax (IL-6) [%]
–	8.4	161 to 163	CC[C@H]1c2cccn2-c2cc(F)c(F)cc2N1S(=O)(=O)c1ccc(O)c(C)c1 [102 (S), 4-{[(4S)-4-ethyl-7,8-difluoropyrrolo[1,2-a]quinoxalin-5(4H)-yl]sulfonyl}-2-methylphenol]	–	161
198	23	125 to 129	C[C@@H]1c2cccn2-c2ccc(F)cc2N1C(=O)c1ccc(O)cc1 [123 (R), 4-{[(4R)-7-fluoro-4-methylpyrrolo[1,2-a]quinoxalin-5(4H)-yl]carbonyl}phenol]	27	112
–	0.4	213 to 214	CC[C@@H]1c2cccn2-c2ccc(Cl)cc2N1C(=O)c1ccc(O)cc1O [125 (R), 4-{[(4R)-7-chloro-4-ethylpyrrolo[1,2-a]quinoxalin-5(4H)-yl]carbonyl}benzene-1,3-diol]	–	120
159	62	115 to 116	CC[C@@H]1c2cccn2-c2ccc(F)cc2N1C(=O)c1cccc(O)c1 [127 (R), 3-{[(4R)-4-ethyl-7-fluoropyrrolo[1,2-a]quinoxalin-5(4H)-yl]carbonyl}phenol]	35	132
–	1100	187 to 189	CC[C@@H]1c2cccn2-c2ccc(Br)cc2N1S(=O)(=O)c1ccc(O)cc1 [Example 78, 4-{[(4R)-7-bromo-4-ethylpyrrolo[1,2-a]quinoxalin-5(4H)-yl]sulfonyl}phenol]	–	40
–	51	176 to 178	CCC1c2cccn2-c2ccc(Br)cc2N1S(=O)(=O)c1cccc(O)c1 (stereo not drawn) [Example 82, 3-[(7-bromo-4-ethylpyrrolo[1,2-a]quinoxalin-5(4H)-yl)sulfonyl]phenol]	–	114
205	41	153 to 154	CCC1c2cccn2-c2ccc(F)cc2N1S(=O)(=O)c1cccc(O)c1 (stereo not drawn) [Example 87, 3-[(4-ethyl-7-fluoropyrrolo[1,2-a]quinoxalin-5(4H)-yl)sulfonyl]phenol]	33	112
–	92	175 to 176	CCC1c2cccn2-c2c(cc(F)c(F)c2F)N1S(=O)(=O)c1ccc(O)cc1 (stereo not drawn) [Example 98, 4-[(4-ethyl-7,8,9-trifluoropyrrolo[1,2-a]quinoxalin-5(4H)-yl)sulfonyl]phenol]	–	117
–	–	153 to 155	CCC1c2cccn2-c2ccc(F)cc2N1C(=O)c1ccc(O)cc1O (stereo not drawn) [Example 120, 4-[(4-ethyl-7-fluoropyrrolo[1,2-a]quinoxalin-5(4H)-yl)carbonyl]benzene-1,3-diol]	–	–
–	–	198 to 201	CCC1c2cccn2-c2ccc(Cl)cc2N1C(=O)c1ccc(O)cc1O (stereo not drawn) [Example 124, 4-[(7-chloro-4-ethylpyrrolo[1,2-a]quinoxalin-5(4H)-yl)carbonyl]benzene-1,3-diol]	–	–
–	–	115 to 117	CCC1c2cccn2-c2ccc(F)cc2N1C(=O)c1cccc(O)c1 (stereo not drawn) [Example 126, 3-[(4-ethyl-7-fluoropyrrolo[1,2-a]quinoxalin-5(4H)-yl)carbonyl]phenol]	–	–
